# Test results from patent US12365651B2, “Use of pirfenidone and derivatives for modulation of B lymphocyte activity and organ protection from acute tissue damage” (Washington University, priority 2017, dated 2025).
# Tested on: wild-type (WT) mice (C57BL/6J)
# Test: Closed-chest ischemia (90 minutes) reperfusion (I/R) injury
# Type: in vivo, mouse
# Procedure: Ischemia Reperfusion (I/R) Injury. Hearts from wild-type (WT) mice (C57BL/6J; purchased from Jackson Laboratory) were subjected to ischemia reperfusion (I/R) injury, using the closed-chest ischemia reperfusion model developed by Entman and colleagues (34), and modified as we have described previously (15). For the studies described herein we used 9-10 week old mice that were instrumented, then at 1 week post instrumentation were anesthetized with 1.5% isoflurane, and subjected to 90 minutes of closed-chest ischemia, followed by reperfusion for 2 weeks.
# In order to administer Pirfenidone, mice were fed powdered chow mixed with Pirfenidone (eNovation Chemicals, Bridgewater, NJ, USA, Cat #D404655) at 0.5% in weight or powdered chow alone. […] Unless specifically noted, mice were switched to a diet enriched with Pirfenidone 3 days prior to DT-induced injury or I/R-injury, and maintained on this diet throughout the duration of the experiments. In parallel studies, we fed mice normal chow prior to I/R injury and then administered Pirfenidone acutely at the time of cardiac injury. For these latter studies, mice were injected i.p. with diluent (200 μL phosphate-buffered solution [PBS]) or i.p. with Pirfenidone (200 μL of Pirfenidone [5 mg/mL] in PBS) after reperfusion and the morning after I/R injury (2 injections total). They were switched to Pirfenidone-enriched diet or control diet the evening of I/R injury and maintained on the same diet until completion of the experiment.
# Rosa26-DT Mlc2v-Cre and littermate control WT mice were euthanized 14 days after DT injection, and the hearts were removed and weighed to determine the heart-weight-to-tibia-length-ratio. WT mice were euthanized 14 days after I/R injury and the hearts were removed and weighed to determine the heart-weight-to-tibia-length-ratio. Hearts were processed, paraffin-embedded, and stained with hematoxylin/eosin and Masson's trichrome, as described (38). TUNEL staining was performed with the Millipore (Burlington, MA, USA) S7200 ApopTag Peroxidase In Situ Oligo Ligation Apoptosis Detection Kit according to the manufacturer's instruction.
# Image acquisition. Ultrasound examination of the cardiovascular system was performed using a Vevo 2100 Ultrasound System (VisualSonics Inc, Toronto, Ontario, Canada) equipped with a 30 MHz linear-array transducer, as previously described (15).
# Imaging Protocol. Mice were imaged by echocardiography at the time of ischemia and 2 weeks after reperfusion to evaluate LV structure and function, as described (39). The echocardiographer was blinded to study group assignment. Animals with poor acoustic windows or small areas at risk (<0.45) at the time of ischemia were excluded from further analysis.
# For flow cytometry experiments, mice were euthanized in a CO2 chamber and the hearts were perfused with cold PBS, carefully dissected from extracardiac tissue under a stereo microscope, finely minced, suspended in 3 ml of DMEM, and then digested with 120 U of DNAse (Sigma), 180 U of hyaluronidase (Sigma) and 1350 U of Collagenase (Sigma) for 60 minutes at 37Co. The digested material was filtered through 40 μm filters and pelleted by centrifugation (250×g for 3 minutes at 4° C.) in HBSS supplemented with 2% FCS+0.2% bovine serum albumin (BSA). Red blood cells were lysed in ACK lysis buffer (Invitrogen) for 15′ on ice and the remaining cells were resuspended in 300 μL of FACS buffer (PBS with 2% FCS and 2 mM EDTA). Cultured cells were collected for FACS analysis as described above and resuspended in 300 μL of FACS buffer. Samples were labeled with the fluorescently conjugated antibodies outlined in the table below. Cells were stained for 45 minutes on ice, and washed in FACS buffer prior to analysis. All antibodies from Biolegend were used at 0.2 μL per 300 μL sample, while antibodies from BD biosciences were used at 0.4 μL per 300 μL sample. FACS was performed on Beckton Dickinson analyzers (LSRII, Canto, X20 or Fortessa). […]
# [1] = Pirfenidone chow from 3 days prior to I/R, 2 weeks post I/R, vs control
# [2] = day 4 post I/R, Pirfenidone vs control
smiles,measurement,setting,value
"Cc1ccc(=O)n(-c2ccccc2)c1 [Pirfenidone, 5 methyl-1-phenyl-2-[H] pyridone]",LVEF,"B-cell depleted (anti-CD20) + Pirfenidone vs B-cell depleted mice, 2 weeks after I/R, p=0.15",no significant difference
same,LV mass,"B-cell depleted (anti-CD20) + Pirfenidone vs B-cell depleted mice, 2 weeks after I/R, p=0.21",no significant difference
same,LV end-diastolic volume,"B-cell depleted (anti-CD20) + Pirfenidone vs B-cell depleted mice, 2 weeks after I/R, p=0.40",no significant difference
same,percentage of trichrome positive myocardium,"B-cell depleted (anti-CD20) + Pirfenidone vs B-cell depleted mice, 2 weeks after I/R, p=0.43",no significant difference
same,heart-weight-to-tibia length ratio,"B-cell depleted (anti-CD20) + Pirfenidone vs B-cell depleted mice, 2 weeks after I/R, p=0.75",no significant difference
same,"area at risk (segmental wall motion score index, SWMSI)","Pirfenidone chow from 3 days prior to I/R vs control, p=0.68",no difference
same,LV end-diastolic volumes,[1],significant (p=0.02) decrease
same,LVEF,[1],trend (p=0.08) towards improvement
same,heart-weight-to-tibia length ratio,[1],significant decrease
same,LV mass measured by 2-D echocardiography,"Pirfenidone chow from 3 days prior to I/R, 2 weeks post I/R, vs control, p=0.03",significant decrease
same,percentage of myocardium exhibiting collagen staining with Masson's trichrome,"Pirfenidone chow from 3 days prior to I/R, at 2 weeks, vs normal chow, p=0.4",no significant difference
same,heart-weight/tibia length ratio,"acute administration of Pirfenidone after reperfusion then chow 14 days, vs diluent, p=0.015",significantly (p=0.015) reduced
same,area at risk,"acute administration of Pirfenidone after reperfusion, vs diluent, p=0.47",not different
same,CD19+ lymphocytes,[2],significant (p<0.001) reduction
same,subset of CD19+CD11b− B lymphocytes,[2],significant (p<0.001) reduction
same,number of myocardial CD19+ CD86high,"following I/R injury, day 4",significant (p<0.03) decrease
